The values below are quoted from earlier work in patent publication US10342775B2, “Vitamin A for parenteral administration” (FRESENIUS KABI DEUTSCHLAND GMBH, priority 2015, dated 2019).

Structures are written as SMILES.

For `CCCCCCCCCCCCCCCC(=O)OC/C=C(C)/C=C/C=C(C)/C=C/C1=C(C)CCCC1(C)C` [retinol palmitate], the solubility in water result is listed as “practically insoluble in water”.
